From patent US10017533B2, “Cytotoxic titanium and vanadium complexes” (YISSUM RESEARCH DEVELOPMENT COMPANY OF THE HEBREW …, priority 2012, dated 2018)

Assays:
HT-29 cancer cells = assay: MTT cytotoxicity assay on HT-29 colon cells; assay type: cell-based, human; details: for IC50 / maximal inhibition HT-29: three days incubation
Method: (§1) Cytotoxicity was measured on HT-29 colon and OVCAR ovarian cells obtained from ATCC Inc. using the methylthiazolyldiphenyl-tetrazolium bromide (MTT) assay. Cells (0.6×106) in medium (contains: 1% penicillin/streptomycin antibiotics; 1% L-glutamine; 10% fetal bovine serum (FBS) and 88% medium RPMI-1640, all purchased from Biological Industries Inc.) were seeded into a 96-well plate and allowed to attach for a day. The cells were consequently treated with the reagent tested at 10 different concentrations. Solutions/dispersions of the reagents were prepared either by dissolving 8 mg of the nonformulated reagent in 200 μL of THF or by dispersing 8 mg of formulated reagent in 200 μL of medium, with further diluting to obtain the different concentrations. A total of 20 μL of the resulting system were diluted with 180 μL of medium. Consequently, 10 μL of each final system were added to each well already containing 200 μL of the above solution of cells in the medium to give final concentration of up to 200 mg/L. Control wells were treated with similar amounts of THF or medium. After a standard of 3 days incubation at 37° C. in 5% CO2 atmosphere, MTT (0.1 mg in 20 μL) was added and the cells were incubated for additional 3 hours. The MTT solution was then removed, and the cells were dissolved in 200 μL isopropanol. The absorbance at 550 nm was measured by a Bio-Tek EL-800 microplate reader spectrophotometer. Each measurement was repeated at least 3×3 times, namely, three repeats per plate, all repeated at least 3 times on different days (9 repeats altogether). IC50 values were determined by a non-linear regression of a variable slope (four parameters) model.

OVCAR-3 = assay: MTT cytotoxicity assay on OVCAR-3 cells; assay type: cell-based; details: administered without formulations, three days incubation
Method: as §1

OVCAR cancer cells = assay: MTT cytotoxicity assay on OVCAR ovarian cells; assay type: cell-based
Method: as §1, with “After a standard of 3 days incubation at 37° C. in 5% CO2 atmosphere, MTT (0.1 mg in 20 μL) was added and the cells were incubated for additional 3 hours. The MTT solution was then removed, and the cells were dissolved in 200 μL isopropanol.” left out, “Each measurement was repeated at least 3×3 times, namely, three repeats per plate, all repeated at least 3 times on different days (9 repeats altogether).” left out

[1] = test system: multi-drug-resistant (MDR) cells HU-2; assay: Cytotoxicity toward multi-drug-resistant HU-2 cells; assay type: cell-based; details: nanoformulated complex
[2] = Hydrolysis measurements by 1H NMR / stability in water; assay type: physicochemical; details: 10% D2O added to [D8]THF solution
Method: Comparative hydrolysis measurements by ^1H NMR were carried by monitoring the integration of selected signals with time following addition of 10% D2O to [D8]THF solution of the complexes. The t1/2 value for isopropoxo hydrolysis for compound 4 was ca. 100 hours, markedly higher than the value previously reported for analogous complexes of two labile ligands obtained under similar conditions (ca. 5 hours).
NMR data were recorded using AMX-400 or AMX-500 MHz Bruker spectrometer. X-ray diffraction data were obtained with a Bruker SMART APEX CCD diffractometer, running the SMART software package. After collection, the raw data frames were integrated by the SAINT software package. The structures were solved and refined using the SHELXTL software package. Hydrolysis studies by NMR were performed using a solution of the complex in [D^8]THF and adding 10% D2O. The results were verified by including p-dinitrobenzene as an internal standard.

[3] = Particle size by dynamic light scattering; assay type: physicochemical; details: nanoformulated complex, 0.2 wt % dispersion in water
Method: The dry powder obtained at the end of the freeze-drying process was dispersed at 0.2% in distilled water. The sample was manually shaken for 15 seconds. Particle size distribution by volume was measured at room temperature by dynamic light scattering using a Nano-ZS Zetasizer (Malvern, UK). A 633 nm wavelength laser beam was used to illuminate the sample and the light scattering was detected at 173° angle by the Non-Invasive Back-Scatter (NIBS) technology. The advantages of the backscatter detection are: (a) Ability to measure particle size at high concentration; (b) Elimination of dust and impurity effect. Size measurements of the dispersion were performed in triplicate.

[4] = administered without formulations

| SMILES | IC50 (HT-29 cancer cells; [4]) | maximal inhibition HT-29 (HT-29 cancer cells; [4]) | IC50 (OVCAR-3) | maximal inhibition OVCAR-3 (OVCAR-3) | IC50 (OVCAR cancer cells; nanoformulated complex, three days incubation) | cytotoxicity when measured directly on OVCAR-1 (OVCAR cancer cells; non-formulated, OVCAR-1 cells as printed) | IC50 (HT-29 cancer cells; nanoformulated complex) | cytotoxicity when measured/administered directly on HT-29 (HT-29 cancer cells; non-formulated) | IC50 [1] | hydrolysis observed by 1H NMR [2] | Mean particle size [3] |
| --- | --- | --- | --- | --- | --- | --- | --- | --- | --- | --- | --- |
| N.N.[Cl][Pt][Cl] [Cis-platin, reference compound] | 12200 ± 2300 nM | 90% | 8800 ± 2100 nM | 91% |  |  |  |  |  |  |  |
| Cc1ccc2c(c1)CNCCN1Cc3cc(C)ccc3[O][V](=[O])([O]2)[O]c2ccc(C)cc2C1 [compound 6] | 2500 ± 700 nM | 98% | 300 ± 100 nM | 90% |  |  |  |  |  |  |  |
| [O]=[V]1[O]c2ccccc2CNCCNCc2ccccc2[O]1 [compound 63] | 5800 ± 300 nM | 97% | 4300 ± 1400 nM | 87% |  |  |  |  |  |  |  |
| [O]=[V]12[O]c3ccc(Cl)cc3CNCCN(Cc3cc(Cl)ccc3[O]1)Cc1cc(Cl)ccc1[O]2 [compound 7] | 3200 nM | 95% |  |  |  |  |  |  |  |  |  |
| Cc1cc(C)c2c(c1)CN1Cc3cc(C)cc(C)c3[O][V](=[O])([O]2)[O]c2c(C)cc(C)cc2C1 [compound 50] | 4600 ± 800 nM | 96% | 2800 ± 500 nM | 87% |  |  |  |  |  |  |  |
| Clc1cc(Cl)c2c(c1)CN1CCN3Cc4cc(Cl)cc(Cl)c4[O][Ti]([O]2)([O]c2c(Cl)cc(Cl)cc2C1)[O]c1c(Cl)cc(Cl)cc1C3 [compound 3] |  |  |  |  | 14000 ± 4000 nM | inactive | 12000 ± 2000 nM | inactive | 800 ± 1000 nM | no substantial hydrolysis was observed for over a week | 5.3 ± 0.3 nm |
| COc1ccc2c(c1)CNCCN1Cc3cc(OC)ccc3[O][V](=[O])([O]2)[O]c2ccc(OC)cc2C1 [compound 8] | 700 ± 100 nM | 94% | 600 ± 200 nM | 85% |  |  |  |  |  |  |  |
| [O]=[V]12[O]c3ccccc3CNCCN(Cc3ccccc3[O]1)Cc1ccccc1[O]2 [compound 5] | 1900 ± 600 nM | 97% | 300 ± 100 nM | 88% |  |  |  |  |  |  |  |
| CC(C)(C)Oc1ccc2c(c1)CNCCN1Cc3cc(OC(C)(C)C)ccc3[O][V](=[O])([O]2)[O]c2ccc(OC(C)(C)C)cc2C1 [compound 9] | 2000 ± 400 nM | 99% | 1300 nM | 84% |  |  |  |  |  |  |  |
